Measurements from article PMC8196580, “Identification of Kaurane-Type Diterpenes as Inhibitors of Leishmania Pteridine Reductase I” (Molecules, 2021).
Read-outs that look alike come from different tables or passages of the source.

Key:
LmPTR1 = target: T1, LmPTR1 (Leishmania major, UniProt Q01782); assay: LmPTR1 enzyme inhibition assay (spectrophotometric, NADPH oxidation at 340 nm); type: biochemical; details: for IC50: NADPH 250 µM, pH 6.0, 30 °C, 0.1–128 µM
T1 construct: made in house
T1 sequence (Q01782 1-288): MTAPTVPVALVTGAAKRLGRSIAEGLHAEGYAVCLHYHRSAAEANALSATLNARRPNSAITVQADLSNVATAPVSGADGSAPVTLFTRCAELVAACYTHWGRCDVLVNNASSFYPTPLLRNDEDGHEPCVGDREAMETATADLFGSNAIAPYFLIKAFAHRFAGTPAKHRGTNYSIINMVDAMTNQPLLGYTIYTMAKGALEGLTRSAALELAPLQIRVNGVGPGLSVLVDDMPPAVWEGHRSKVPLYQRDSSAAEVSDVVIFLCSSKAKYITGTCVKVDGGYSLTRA
Experimental: The selected synthetic diterpene esters 135, 301, 302, 301a, and 302a were tested in vitro to experimentally determine their abilities to inhibit the enzymatic activity of LmPTR1 as an extension of the results provided by the in silico screening. […] The IC50 was then calculated for the tested diterpenes, and these values were used to calculate the apparent inhibitory constant (Ki^app) (Table 3) using the Cheng–Prusoff equation, assuming reversible competitive inhibition and 1:1 stoichiometry. PMA, a known PTR1 inhibitor, was used as a positive control. […] Therefore, a reasonable inference based on this small set of compounds is that the presence of a p-hydroxyl group at the phenylpropanoid moiety might favor inhibitory activity, whereas a 9β-hydroxyl group at the diterpene moiety has a negative influence on LmPTR1 inhibition.
Recombinant LmPTR1 enzyme was obtained, purified, and kinetically characterized, as reported previously. The in vitro assessment of selected diterpenes (i.e., 135, 301, 302, 301a, and 302a) for LmPTR1 inhibitory activity was performed through the spectrophotometric monitoring of the enzymatic activity under balanced conditions: LmPTR1 (30 µg), 7,8-dihydro-L-biopterin (DHB, 20 µM), sodium citrate buffer (20 mM, pH 6.0), 30 °C, and a final assay volume of 600 µL. Each reaction was started by the addition of 250 µM NADPH. Absorbance was monitored at 340 nm (i.e., oxidation of NADPH to NADP+) for 240 s, and the resulting profile was used to measure the initial reaction rate (IRR) through the respective slope by linear regression. All recordings were performed in triplicate. PMA was used as the positive control. The resulting IRR values were used to calculate the % inhibition, as 100 − (Ri/Rc × 100), where Ri is the IRR in the presence of the inhibitor and Rc is the IRR in the absence of inhibitors (1% DMSO v/v final concentration). The % inhibition for at least five concentrations (range: 0.1–128 µM) for each test compound (diterpenes and PMA) were calculated, and concentration-response curves (% inhibition vs. Log[inhibitor]) were obtained by non-linear regression to determine the IC50 using GraphPad Prism 5.0 (GraphPad, San Diego, CA, USA). Finally, Ki^app values were calculated using the Cheng–Prusoff equation for competitive inhibition, assuming a 1:1 stoichiometry and that the inhibitor-binding reactions are reversible: Ki^app = IC50/(1 + [S]/Km), where [S] is the substrate (DHB) concentration and Km is the Michaelis constant. The substrate Km was calculated during the kinetic characterization of purified, recombinant LmPTR1.

Plasmodium falciparum = test system: Plasmodium falciparum; set-up: method as in earlier work; details: in vitro, ref 27 (Nogueira et al.); cited from earlier work
Leishmania donovani = test system: Leishmania donovani; set-up: method as in earlier work; details: in vitro, ref 27 (Nogueira et al.); cited from earlier work
L6 cells = test system: L6 cells; set-up: method as in earlier work; details: in comparison with L6 cells; ref 27 (Nogueira et al.); cited from earlier work
L. major [1] = test system: L. major; set-up: method as in ChEMBL; details: ref ChEMBL, cited from earlier work
L. major [2] = assay: ChEMBL dataset of pIC50 values against L. major used for the RF model (Table S1); type: cell-based, Leishmania major; note: call rule not given here
[3] = recombinant LmPTR1, DHB 20 µM, read-out: IC50
[4] = ChemBL structures with pIC50 values used for Random forest model construction, L. major
[5] = Active/Inactive class assigned to the ChEMBL pIC50 value for Random forest model construction, ref ChEMBL

Ki (LmPTR1; read-out: Ki^app) [µM]	IC50 (LmPTR1; [3]) [µM]	SMILES	pIC50 Value (L. major [1]; [4])	Outcome (L. major [2]; [5])	further results
4.64	21.2	C=C1C[C@@]23CCC4[C@](C)(C(=O)O)[C@H](OC(=O)/C=C/c5ccccc5)CC[C@@]4(C)[C@]2(O)CC[C@@H]1C3 (stereo partly drawn) [compound 301, 3α-Cinnamoyloxy-9β-hydroxy-ent-kaur-16-en-19-oic Acid]			
		CCc1nc(N)nc(N)c1-c1ccc(Cl)cc1 [PMA, pyrimethamine, reference compound]			Ki (LmPTR1): 0.24 µM; IC50 (LmPTR1; IC50, recombinant LmPTR1, DHB 20 µM): 1.11 µM
5.08	23.2	C=C1CC23CCC4C(C)(C(=O)O)C(OC(=O)C=Cc5ccc(O)cc5)CCC4(C)C2(O)CCC1C3 (stereo not drawn) [301a, 3α-p-coumaroyloxy-9β-hydroxy-ent-kaur-16-en-19-oic Acid]			
2.1	9.6	C=C1C[C@@]23CCC4[C@](C)(C(=O)O)[C@H](OC(=O)/C=C/c5ccccc5)CC[C@@]4(C)[C@@H]2CC[C@@H]1C3 (stereo partly drawn) [compound 302, 3α-cinnamoyloxy-ent-kaur-16-en-19-oic acid]			
1.33	6.1	C=C1CC23CCC4C(C)(CCC(OC(=O)C=Cc5ccc(O)cc5)C4(C)C(=O)O)C2CCC1C3 (stereo not drawn) [302a, 3α-p-coumaroyloxy-ent-kaur-16-en-19-oic acid]			improvement of inhibitory activity versus 302 (LmPTR1; 3α-p-coumaroyloxy instead of 3α-cinnamoyloxy): approximately 60%
		C=C1C[C@@]23CC[C@@H]4[C@](C)(CO)[C@H](O)CC[C@@]4(C)[C@@H]2CC[C@@H]1C3 (single isomer, unassigned; ent-3) [ent-3-α-hydroxy-kaur-16-en-18-ol]			IC50 (Plasmodium falciparum): 3.5 µM; IC50 (Leishmania donovani): 2.5 µM; Selectivity index, SI (L6 cells): > 10
1.88	8.6	C=C1C[C@@]23CC[C@@H]4[C@](C)(C(=O)O[C@H]5C=C(C)[C@@H](O)C[C@@H]5C(C)C)CCC[C@@]4(C)C2CC[C@@H]1C3 (stereo partly drawn) [compound 135, 2β-hydroxy-menth-6-en-5β-yl ent-kaurenoate]			
		COC(=O)C1=C(C)NC(C)=C(C(=O)OCCN(C)Cc2ccccc2)C1c1cccc([N+](=O)[O-])c1 (stereo not shown) [CHEMBL1484]	4.66	Inactive	
		Cn1c([N+](=O)[O-])cnc1-c1nnc(N2CCN(C(=O)c3ccc(Br)s3)CC2)s1 [CHEMBL520309]	4.80	Inactive	
		O=[N+]([O-])c1ccc(-c2nnc(NCc3cn(Cc4cccc(Cl)c4Cl)nn3)s2)o1 [CHEMBL1951533]	3.99	Inactive	
		C[C@H]1COC2=C1C(=O)C(=O)c1c2ccc2c1CCCC2(C)C [CHEMBL187460]	4.74	Inactive	
		COc1ccccc1C(=O)N/N=C/c1cc(O)c(O)c(O)c1 [CHEMBL2382033]	4.50	Inactive	
		Cc1cccc2cc(/C=C/C(=O)c3sccc3Br)c(Cl)nc12 [CHEMBL1940869]			pIC50 Value (L. major [1]; ChemBL structures with pIC50 values used for Random forest model construction (Table S1)): 5.63; Outcome (L. major [2]; Active/Inactive class assigned to ChemBL structures for Random forest model construction (Table S1)): Active
